Patent EP0771196B1, “EXCITATORY AMINO ACID RECEPTOR ANTAGONISTS” (ELI LILLY AND COMPANY, priority 1994, dated 1996)

test system: metabotropic glutamate receptors; test: Displacement of 1S,3R-ACPD-sensitive [3H]glutamate binding to rat brain cell membranes; settings: crude membranes of rat forebrain; 10 µM compound
Description: The binding of [^3H]glutamate was conducted with crude membranes of rat forebrain as described by Schoepp and True. Schoepp and True, Neuroscience Lett., 145, 100-104 (1992) and True and Schoepp, Society for Neuroscience Abstracts, 19, 470 (1993). IC50 values for the inhibition of [^3H]glutamate binding, or the percent displacement of [^3H]glutamate binding at a 10 µM concentration, of the formula I compound, is shown in Table II.

| Compound | ACPD-Sensitive [^3H]Glutamate Binding % Displacement at 10 µM |
| --- | --- |
| CC(C)C(N)(C(=O)O)[C@H]1C[C@@H]1C(=O)O (mixture of isomers) [Example 14, 2SR- and 2RS-2-amino-2-(1SR,2SR-2-carboxycyclopropan-1-yl)-3-methylbutanoic acid] | (17%) |

same assay, conditions: crude membranes of rat forebrain; inhibition of [3H]glutamate binding

| IC50 | Compound |
| --- | --- |
| 4200 nM | 2R-2- amino-2-(1R,2R-2-carboxycyclopropan-1-yl)-3-(dibenzopyran-4-yl)propanoic acid [Example 74] |
| 1700 nM | CCCCCCCCC(N)(C(=O)O)[C@H]1C[C@@H]1C(=O)O (mixture of isomers) [Example 13, 2SR- and 2RS-2-amino-2-(1SR,2SR-2-carboxycyclopropan-1-yl)decanoic acid] |
| 700 nM | CC(C)CC(N)(C(=O)O)[C@H]1C[C@@H]1C(=O)O (mixture of isomers) [Example 15, 2SR- and 2RS-2-amino-2-(1SR,2SR-2-carboxycyclopropan-1-yl)-4-methylpentanoic acid] |
| 1100 nM | CC(C)CCC(N)(C(=O)O)[C@H]1C[C@@H]1C(=O)O (mixture of isomers) [Example 16, 2SR- and 2RS-2-amino-2-(1SR,2SR-2-carboxycyclopropan-1-yl)-5-methylhexanoic acid] |
| 850 nM | CC(C)CCCC(N)(C(=O)O)[C@H]1C[C@@H]1C(=O)O (mixture of isomers) [Example 17, 2SR- and 2RS-2-amino-2-(1SR, 2SR-2-carboxycyclopropan-1-yl)-6-methylheptanoic acid] |
| 140 nM | NC(CCc1cccc2ccccc12)(C(=O)O)[C@H]1C[C@@H]1C(=O)O (mixture of isomers) [Example 18, 2SR- and 2RS-2-amino-2-(1SR,2SR-2-carboxycyclopropan-1-yl)-4-(naphth-1-yl)butanoic acid] |
| 2800 nM | NC(CCc1ccc2ccccc2c1)(C(=O)O)[C@H]1C[C@@H]1C(=O)O (mixture of isomers) [Example 19, 2SR- and 2RS-2-amino-2-(1SR,2SR-2-carboxycyclopropan-1-yl)-4-(naphth-2-yl)butanoic acid] |
| 570 nM | Cc1ccccc1CCC(N)(C(=O)O)[C@H]1C[C@@H]1C(=O)O (mixture of isomers) [Example 20, 2SR- and 2RS-2-amino-2-(1SR,2SR-2-carboxycyclopropan-1-yl)-4-(2-methylphenyl)butanoic acid] |
| 38 nM | Cc1cccc(CCC(N)(C(=O)O)[C@H]2C[C@@H]2C(=O)O)c1 (mixture of isomers) [Example 21, 2SR- and 2RS-2-amino-2-(1SR,2SR-2-carboxycyclopropan-1-yl)-4-(3-methylphenyl)butanoic acid] |
| 590 nM | Cc1ccc(CCC(N)(C(=O)O)[C@H]2C[C@@H]2C(=O)O)cc1 (mixture of isomers) [Example 22, 2SR- and 2RS-2-amino-2-(1SR,2SR-2-carboxycyclopropan-1-yl)-4-(4-methylphenyl)butanoic acid] |
| 260 nM | NC(CCc1ccccc1Cl)(C(=O)O)[C@H]1C[C@@H]1C(=O)O (mixture of isomers) [Example 23, 2SR- and 2RS-2-amino-2-(1SR,2SR-2-carboxycyclopropan-1-yl)-4-(2-chlorophenyl)butanoic acid] |
| 110 nM | NC(CCc1cccc(Cl)c1)(C(=O)O)[C@H]1C[C@@H]1C(=O)O (mixture of isomers) [Example 24, 2SR- and 2RS-2-amino-2-(1SR,2SR-2-carboxycyclopropan-1-yl)-4-(3-chlorophenyl)butanoic acid] |
| 1500 nM | NC(CCc1ccc(-c2ccccc2)cc1)(C(=O)O)[C@H]1C[C@@H]1C(=O)O (mixture of isomers) [Example 49, 2SR- and 2RS-2-amino-2-(1SR,2SR-2-carboxycyclopropan-1-yl)-4-(4-biphenyl)butanoic acid] |
| 370 nM | NC(CCc1c(F)c(F)c(F)c(F)c1F)(C(=O)O)[C@H]1C[C@@H]1C(=O)O (mixture of isomers) [Example 50, 2SR- and 2RS-2-amino-2-(1SR,2SR-2-carboxycyclopropan-1-yl)-4-(2,3,4,5,6-pentafluorophenyl)butanoic acid] |
| 4900 nM | COc1cccc(CCC(N)(C(=O)O)[C@H]2C[C@@H]2C(=O)O)c1OC (mixture of isomers) [Example 52, 2SR- and 2RS-2-amino-2-(1SR,2SR-2-carboxycyclopropan-1-yl)-4-(2,3-dimethoxyphenyl)butanoic acid] |
| 95 nM | COc1cc(CCC(N)(C(=O)O)[C@H]2C[C@@H]2C(=O)O)cc(OC)c1 (mixture of isomers) [Example 53, 2SR- and 2RS-2-amino-2-(1SR,2SR-2-carboxycyclopropan-1-yl)-4-(3,5-dimethoxyphenyl)butanoic acid] |
| 23 nM | NC(CCc1ccc(F)cc1)(C(=O)O)[C@H]1C[C@@H]1C(=O)O (mixture of isomers) [Example 54, 2SR- and 2RS-2-amino-2-(1SR,2SR-2-carboxycyclopropan-1-yl)-4-(4-fluorophenyl)butanoic acid] |

| IC50 | Compound |
| --- | --- |
| 120 nM | NC(CCc1ccccc1F)(C(=O)O)[C@H]1C[C@@H]1C(=O)O (mixture of isomers) [Example 55, 2SR- and 2RS-2-amino-2-(1SR,2SR-2-carboxycyclopropan-1-yl)-4-(2-fluorophenyl)butanoic acid] |
| 610 nM | NC(CCc1ccc(C(F)(F)F)cc1)(C(=O)O)[C@H]1C[C@@H]1C(=O)O (mixture of isomers) [Example 56, 2SR- and 2RS-2-amino-2-(1SR,2SR-2-carboxycyclopropan-1-yl)-4-(4-(trifluoromethyl)phenyl)butanoic acid] |
| 480 nM | NC(CCc1ccccc1C(F)(F)F)(C(=O)O)[C@H]1C[C@@H]1C(=O)O (mixture of isomers) [Example 57, 2SR- and 2RS-2-amino-2-(1SR,2SR-2-carboxycyclopropan-1-yl)-4-(2-(trifluoromethyl)phenyl)butanoic acid] |
| 580 nM | NC(CCc1cccs1)(C(=O)O)[C@H]1C[C@@H]1C(=O)O (mixture of isomers) [Example 58, 2SR- and 2RS-2-amino-2-(1SR,2SR-2-carboxycyclopropan-1-yl)-4-(2-thienyl)butanoic acid] |
| 210 nM | NC(CCc1ccsc1)(C(=O)O)[C@H]1C[C@@H]1C(=O)O (mixture of isomers) [Example 59, 2SR- and 2RS-2-amino-2-(1SR,2SR-2-carboxycyclopropan-1-yl)-4-(3-thienyl)butanoic acid] |
| 170 nM | NC(CCc1cccc(Oc2ccccc2)c1)(C(=O)O)[C@H]1C[C@@H]1C(=O)O (mixture of isomers) [Example 60, 2SR- and 2RS-2-amino-2-(1SR,2SR-2-carboxycyclopropan-1-yl)-4-(3-phenoxyphenyl)butanoic acid] |
| 280 nM | Cn1cc(CCC(N)(C(=O)O)[C@H]2C[C@@H]2C(=O)O)c2ccccc21 (mixture of isomers) [Example 61, 2SR- and 2RS-2-amino-2-(1SR,2SR-2-carboxycyclopropan-1-yl)-4-(1-methylindol-3-yl)butanoic acid] |
| 230 nM | NC(CC1CCCCC1)(C(=O)O)[C@H]1C[C@@H]1C(=O)O (mixture of isomers) [Example 62, 2SR- and 2RS-2-amino-2-(1SR,2SR-2-carboxycyclopropan-1-yl)-3-cyclohexylpropanoic acid] |
| 25 nM | NC(CCc1cc(Cl)cc(Cl)c1)(C(=O)O)[C@H]1C[C@@H]1C(=O)O (mixture of isomers) [Example 75, 2SR- and 2RS-2-amino-2-(1SR,2SR-2carboxycyclopropan-1-yl)-4-(3,5-dichlorophenyl)butanoic acid] |
| 510 nM | NC(CCc1cccc(-c2ccccc2)c1)(C(=O)O)[C@H]1C[C@@H]1C(=O)O (mixture of isomers) [Example 76, 2SR- and 2RS-2-amino-2-(1SR,2SR-2-carboxycyclopropan-1-yl)-4-(3-biphenyl)butanoic acid] |
| 60 nM | NC(CCc1ccc(F)cc1F)(C(=O)O)[C@H]1C[C@@H]1C(=O)O (mixture of isomers) [Example 77, 2SR- and 2RS-2-amino-2-(1SR,2SR-2-carboxycyclopropan-1-yl)-4-(2,4-difluorophenyl)butanoic acid] |
| 37 nM | NC(CCc1ccc(F)c(F)c1)(C(=O)O)[C@H]1C[C@@H]1C(=O)O (mixture of isomers) [Example 78, 2SR- and 2RS-2-amino-2-(1SR,2SR-2-carboxycyclopropan-1-yl)-4-(3,4-difluorophenyl)butanoic acid] |
| 49 nM | NC(CCc1cccc(C(=O)O)c1)(C(=O)O)[C@H]1C[C@@H]1C(=O)O (mixture of isomers) [Example 79, 2SR- and 2RS-2-amino-2-(1SR,2SR-2-carboxycyclopropan-1-yl)-4-(3-carboxyphenyl)butanoic acid] |
| 370 nM | NC(CCc1ccc(C(=O)O)cc1)(C(=O)O)[C@H]1C[C@@H]1C(=O)O (mixture of isomers) [Example 80, 2SR- and 2RS-2-amino-2-(1SR,2SR-2-carboxycyclopropan-1-yl)-4-(4-carboxyphenyl)butanoic acid] |
| 680 nM | NC(CCc1ccc(Br)cc1)(C(=O)O)[C@H]1C[C@@H]1C(=O)O (mixture of isomers) [Example 82, 2SR- and 2RS-2-amino-2-(1SR,2SR-2-carboxycyclopropan-1-yl)-4-(4-bromophenyl)butanoic acid] |
| 2600 nM | NC(CCC1C2CCCC1CCC2)(C(=O)O)[C@H]1C[C@@H]1C(=O)O (mixture of isomers) [Example 83, 2SR- and 2RS-2-amino-2-(1SR,2SR-2-carboxycyclopropan-1-yl)-4-(9-bicyclo[3.3.1]nonanyl)butanoic acid] |
| 360 nM | NC(CCc1ccccc1Oc1ccccc1)(C(=O)O)[C@H]1C[C@@H]1C(=O)O (mixture of isomers) [Example 84, 2SR- and 2RS-2-amino-2-(1SR,2SR-2-carboxycyclopropan-1-yl)-4-(2-phenoxyphenyl)butanoic acid] |
